“Also recorded” adds a separate entry of the source. Non-standard residues stand in square brackets, D forms with d. Residues, ends and D or L forms follow the SMILES beside them. *: point of attachment. Biotin = O=C1N[C@H]2[C@H](CS[C@H]2CCCCC(=O)*)N1; Benzoyl(4-SO2F) = O=C(c1ccc(S(=O)(=O)F)cc1)*; pY = N[C@@H](Cc1ccc(OP(=O)(O)O)cc1)C(=O)O; Dap = NC[C@H](N)C(=O)O
What was measured:
Assay type in all cases: binding
[1] = molecular target: T1, Nck (Homo sapiens, UniProt P16333); test: Crosslinking of peptides with recombinant Nck in vitro (SDS-PAGE, Western blotting); conditions: PBS, 1 h
T1 construct: GST (followed by PreScission/HRV 3C site) (N, cleaved yes); made in house; host or cells: E. coli BL21(DE3)
Excerpt: Although peptide Y474 can block Nck-mediated LLPS, the requirement of a high concentration of the blocker peptide is hard to achieve inside the cell. […] The side chains of the Nck lysine residues are pointing toward the residues at pY+1 and pY+2 positions with distances of only 4 to 6 Å. This unique feature gives us an opportunity to design covalent blockers for Nck-SH2 by installing electrophiles at the pY+1 or pY+2 positions to enable a proximal conjugation reaction with one of the lysine residues. Covalent blockage through the characteristic lysine residues will maximize the specificity of the inhibitor toward Nck-SH2. As sulfonyl fluoride has been reported to react with proteinaceous nucleophiles such as lysine, histidine, or cysteine,[34] we installed a sulfonyl fluoride group on the side chain of diaminopropionic acid, giving an unnatural amino acid X1 at different positions such as pY+1 (Asp6) and pY+3 (Val8) of peptide EEHIpYDEVAAD. Besides the amino acid X1, we also included α-chloroacetyl-carrying amino acids X2 and X3, which may also react with proteineous nucleophiles. Electrophile-containing reactive peptides p1 to p11 were synthesized with a biotin tag at the N-termini (Figure 4b). After the reactive peptides were incubated with recombinant Nck protein at a 5:1 ratio at 37 °C in PBS for 1 h, the formation of covalently linked Nck–peptide conjugates could be observed, shown as new protein bands with molecular weights higher than that of Nck based on denatured SDS-PAGE and Western blotting analysis against biotin (Figure 4c). […] At 37 °C in PBS buffer, the 1:1 reaction efficiency reached 50% in 2 min (Figure S4 in the Supporting Information).
Figure 4 Covalently reactive peptides designed based on a Tir peptide. (a) Crystal structure of Nck-SH2 in complex with a peptide EEHIpYDEVAAD from EPEC protein Tir (PDB: 2CI9). (b) List of synthetic reactive peptides. (c) Unnatural amino acids in the peptides. (d) SDS-PAGE (top) and Western blotting (bottom) analyses showing covalent conjugation of the peptides with Nck. […]

[2] = molecular target: T1, Nck; test: Reaction of peptides with Nck in Caco-2 cell lysate (Western blotting); conditions: lysate of Caco-2 cells (5 µg/µl) overexpressing Nck; peptide 10 µM, 37 °C, 60 min; anti-Nck Western blot
Description: (§1) In addition, we performed the reaction between p1 and Nck in a cell lysate, representing a complex solution. We incubated peptide p1 with the lysate of Caco-2 cells overexpressing Nck, and the reaction mixture was resolved on SDS-PAGE and analyzed with Western blotting against an anti-Nck antibody. […] Next, we incubated biotinylated peptide Y474 and Nck solutions with or without p1 peptide, and pulled down proteins that bound with biotinylated Y474.
Figure S7. Reaction of p1 in cell lysate. Biotinylated p1 peptide (10 µM) was incubated with the
lysate of Caco-2 cells (5 µg/µl)to react at 37 °C for 60 min before the mixture was resolved on SDS-
PAGE. Western blotting experiments using an anti-biotin antibody and an anti-Nck antibody, […]

[3] = system: Nck-SH2; test: Competitive pull-down of Nck with biotinylated Y474; conditions: with or without p1
Description: as §1

[4] = system: Nck-SH2; test: Mass spectrometric analysis of Nck-p1 conjugate
Description: We next identified the residues in Nck-SH2 that are involved in the reaction with p1 by mass spectrometry. […] The Nck–p1 conjugate was digested with trypsin, and peptide fragments were analyzed with an in-line EASY-spray source and nano-LC UltiMate 3000 HPLC system interfaced with an Elite mass spectrometer, operated in the data-dependent acquisition (DDA) mode with one full MS scan at R = 60,000 (m/z = 200) mass followed by HCD MS/MS scans. […] The fragmentation spectral analysis of [EEHIpYXEVAAD(α)] + [HFKVQLK(β)] extracted by pLabel v2.4.3.0 (Figure 5a and Figure S6 in the Supporting Information)[38],[39] confirmed the ligand-directed conjugation of Nck-SH2 protein with p1 peptide. The underlined lysine residue in the β-chain sequence indicated the cross-linked site on the predicted Nck Lys331 residue. Next, we mutated Nck Lys331 to Ala, expressed and purified the Nck-SH2K331A mutant. […]
The reaction mixture of Nck and p1 were digested with trypsin. Digested peptides were analyzed with an in-line EASY-spray source and nano-LC UltiMate 3000 high-performance liquid chromatography system (Thermo Fisher, USA) interfaced with an Elite mass spectrometer (Thermo Fisher, USA). The eluted peptides were detected by the Elite mass spectrometer, which was operated in data-dependent mode with one full MS scan at R = 60,000 (m/z = 200) mass, followed by MS/MS scans. […]

How did the “number of Nck–peptide conjugate bands” value ([1]; p1:Nck 5:1, 37 °C, SDS-PAGE) turn out when `CC[C@H](C)[C@H](NC(=O)[C@H](Cc1c[nH]cn1)NC(=O)[C@H](CCC(=O)O)NC(=O)[C@H](CCC(=O)O)NC(=O)CCCC[C@@H]1SC[C@@H]2NC(=O)N[C@@H]21)C(=O)N[C@@H](Cc1ccc(OP(=O)(O)O)cc1)C(=O)N[C@@H](CNC(=O)c1ccc(S(=O)(=O)F)cc1)C(=O)N[C@@H](CCC(=O)O)C(=O)N[C@H](C(=O)N[C@@H](C)C(=O)N[C@@H](C)C(=O)N[C@@H](CC(=O)O)C(N)=O)C(C)C` [p1] (Biotin-EEHI[pY][Dap](Benzoyl(4-SO2F))EVAAD-NH2; N-terminus and C-terminus assumed) was run?
Its value is “only one Nck–peptide conjugate band”.

What about the “reactivity with Nck” value ([1]; peptide:Nck 5:1, 37 °C, SDS-PAGE and anti-biotin Western blotting) of the same compound?
The value was “highest cross-linking efficiency with Nck; also recorded: noticeable reactivity”.

And the “Nck band shift in cell lysate” value [2]?
The value was “complete band shift”.

What about the “binding of Nck to biotinylated Y474 in pull-down” value [3] of the same compound?
The value was “the Nck protein did not bind with Y474”.

What about the “conjugation stoichiometry by LC-MS” value ([4]; Nck and Nck-p1 conjugate) of the same compound?
The value was “only one p1 was conjugated with Nck”.

And the “reaction site on Nck-SH2” value ([4]; trypsin digest, MS/MS, K331A mutation)?
The value was “Lys331”.

Source: PMC10755736, “Modulating Liquid–Liquid Phase Separation of Nck Adaptor Protein against Enteropathogenic Escherichia coli Infection” (ACS Central Science, 2023)
